Test results reported in ChEMBL document CHEMBL4390686, “Design, Synthesis, and Pharmacokinetic Evaluation of Phosphate and Amino Acid Ester Prodrugs for Improving the Oral Bioavailability of the HIV-1 Protease Inhibitor Atazanavir” (J Med Chem, 2019).
pEC50, pIC50: −log10 of the molar value. Converted amounts (≈) assume the structure as drawn.

What was measured:
physchem [1] = settings: HCl buffer, pH 1
Description: Aqueous solubility of the compound in pH 1 HCl buffer by RP-UPLC analysis

physchem [2] = settings: phosphate buffer, pH 6.5
Description: Aqueous solubility of the compound in pH 6.5 phosphate buffer by RP-UPLC analysis

[3] = rat, in vivo, po, 3 mg/kg
[4] = Cmax in cannulated Sprague-Dawley rat assessed as (R)-(5S,10S,11S,14S)-11-Benzyl-5,14-di-tert-butyl-3,6,13,16-tetraoxo-8-(4-(pyridin-2-yl)benzyl)-2,17-dioxa-4,7,8,12,15-pentaazaoctadecan-10-yl 2-Amino-3-methylbutanoate level at 3 mg/kg equiv of atazanavir administered orally by UPLC/MS/MS analysis; type: ADME, organism-based; parameters: dose 3 mg/kg, route oral; settings: in vivo, po
physchem [5] = settings: 30% CH3CN/HCl buffer, pH 1
Description: Half life in pH 1 30%CH3CN/HCl buffer at 50 mM by RP-UPLC analysis

[6] = rat, in vivo, po, 3 mg/kg; remark: listed apart in the source
physchem [7] = settings: 30% CH3CN/phosphate buffer, pH 6.5
Description: Half life in pH 6.5 30%CH3CN/phosphate buffer at 50 mM by RP-UPLC analysis

[8] = rat, in vivo, po, 3 mg/kg; remark: listed apart in the source
Description: AUClast in cannulated Sprague-Dawley rat assessed as atazanavir level at 3 mg/kg equiv of atazanavir administered orally by UPLC/MS/MS analysis

physchem [9] = settings: 30% CH3CN/acetate buffer, pH 4
Description: Half life in pH 4 30%CH3CN/acetate buffer at 50 mM by RP-UPLC analysis

physchem [10] = settings: acetate buffer, pH 4
Description: Aqueous solubility of the compound in pH 4 acetate buffer by RP-UPLC analysis

[11] = Tmax in cannulated Sprague-Dawley rat assessed as (R)-(5S,10S,11S,14S)-11-Benzyl-5,14-di-tert-butyl-3,6,13,16-tetraoxo-8-(4-(pyridin-2-yl)benzyl)-2,17-dioxa-4,7,8,12,15-pentaazaoctadecan-10-yl 2-Amino-3-methylbutanoate level at 3 mg/kg equiv of atazanavir administered orally by UPLC/MS/MS analysis; type: ADME, organism-based; settings: in vivo, po
Protease = Protease (Human immunodeficiency virus 1, UniProt Q9YQ12)
Description: Inhibition of HIV1 protease activity

[12] = test system: Human immunodeficiency virus 1
Description: Antiviral activity against HIV1 NL4-3 infected in human MT2 cells assessed as reduction in viral yield measured after 4 days by EnduRen live cell substrate based luciferase reporter gene assay

Chain of Protease (Q9YQ12 whole entry): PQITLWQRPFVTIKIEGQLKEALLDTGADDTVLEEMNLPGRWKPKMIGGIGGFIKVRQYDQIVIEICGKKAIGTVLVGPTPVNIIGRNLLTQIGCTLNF

solubility (physchem [1]): > 2400 µg/mL | solubility (physchem [2]): 820 µg/mL (≈ 908 µM) | Cmax [3]: 12 nM | Cmax [4]: 1430 nM | half-life at 50000 µM (physchem [5]): > 20.8 days | Tmax [6]: 0.042 days | half-life at 50000 µM (physchem [7]): > 20.8 days | AUClast [8]: 0.053 µM·h | half-life at 50000 µM (physchem [9]): > 20.8 days | solubility (physchem [10]): > 2200 µg/mL | Tmax [11]: 0.021 days | pIC50 (Protease): 5.94 to 8.40 | pEC50 [12]: 5.90 to 9.05
Compound: COC(=O)N[C@H](C(=O)N[C@@H](Cc1ccccc1)[C@H](CN(Cc1ccc(-c2ccccn2)cc1)NC(=O)[C@@H](NC(=O)OC)C(C)(C)C)OC(=O)[C@H](NC(=O)[C@H](N)C(C)C)C(C)C)C(C)(C)C
